The record followed here is patent publication US7902204B2 (priority 2003, dated 2011).

Structures are written as SMILES.

The test system of this assay is HIV-1 single-round infectious reporter virus. Description: Single-round infectious HIV-1 luciferase reporter virus infection of HeLa CD4 CCR5 cells. It counts as cell-based. Particulars: Human immunodeficiency virus 1, HeLa-CD4/CCR5, 72 h, read-out: EC50 Group from Table 1. On the procedure: • Virus production—Human embryonic Kidney cell line, 293, propagated in Dulbecco's Modified Eagle Medium (Life Technologies, Gaithersburg, Md.) containing 10% fetal Bovine serum (FBS, Sigma, St. Louis, Mo.). • Virus infection—Human epithelial cell line, HeLa, expressing the HIV-1 receptors CD4 and CCR5 was propagated in Dulbecco's Modified Eagle Medium (Life Technologies, Gaithersburg, Md.) containing 10% fetal Bovine serum (FBS, Sigma, St. Louis, Mo.) and supplemented with 0.2 mg/mL Geneticin (Life Technologies, Gaithersburg, Md.) and 0.4 mg/mL Zeocin (Invitrogen, Carlsbad, Calif.). Virus-Single-round infectious reporter virus was produced by co-transfecting human embryonic Kidney 293 cells with an HIV-1 envelope DNA expression vector and a proviral cDNA containing an envelope deletion mutation and the luciferase reporter gene inserted in place of HIV-1 nef sequences (Chen et al, Ref 41). Transfections were performed using lipofectAMINE PLUS reagent as described by the manufacturer (Life Technologies, Gaithersburg, Md.). Experiment • 1. Compound was added to HeLa CD4 CCR5 cells plated in 96 well plates at a cell density of 1×10^4 cells per well in 100 μl Dulbecco's Modified Eagle Medium containing 10% fetal Bovine serum at a concentration of <20 μM. • 2. 100 μl of single-round infectious reporter virus in Dulbecco's Modified Eagle Medium was then added to the plated cells and compound at an approximate multiplicity of infection (MOI) of 0.01, resulting in a final volume of 200 μl per well and a final compound concentration of <10 μM. • 3. Samples were harvested 72 h after infection. • 4. Viral infection was monitored by measuring luciferase expression from viral DNA in the infected cells using a luciferase reporter gene assay kit (Roche Molecular Biochemicals, Indianapolis, Ind.). Infected cell supernatants were removed and 50 μl of Dulbecco's Modified Eagle Medium (without phenol red) and 50 μl of luciferase assay reagent reconstituted as described by the manufacturer (Roche Molecular Biochemicals, Indianapolis, Ind.) was added per well. Luciferase activity was then quantified by measuring luminescence using a Wallac microbeta scintillation counter. • 5. The percent inhibition for each compound was calculated by quantifying the level of luciferase expression in cells infected in the presence of each compound as a percentage of that observed for cells infected in the absence of compound and subtracting such a determined value from 100. • 6. An EC50 provides a method for comparing the antiviral potency of the compounds of this invention. The effective concentration for fifty percent inhibition (EC50) was calculated with the Microsoft Excel Xlfit curve fitting software. For each compound, curves were generated from percent inhibition calculated at 10 different concentrations by using a four paramenter logistic model (model 205). Table 1 is the key for the data in Tables 2-4.
Turning to `O=C(C(=O)N1CCC(=C(c2ccccc2)c2nnco2)CC1)c1c[nH]c2c(Cl)ncnc12` [Example 35], the EC50 was under 1 µM.
Then `N#CC(C(=O)c1c[nH]c2c(Cl)ncnc12)N1CCN(C(=O)c2ccccc2)CC1` (stereo not drawn) [Example 1, 2-(4-Benzoyl-piperazin-1-yl)-3-(4-chloro-5H-pyrrolo [3,2-d]pyrimidin-7-yl)-3-oxo-propionitrile], with under 1 µM; and `O=C(C(=O)N1CCN(C(=O)c2ccccc2)CC1)c1c[nH]c2c(-c3ccncc3)ncnc12` [Example 26, 1-(4-Benzoylpiperazin-1-yl)-2-(4-(pyridin-4-yl)-5H -pyrrolo[3,2-d]pyrimidin-7-yl)ethane-1,2-dione], with under 1 µM.
For `COc1ccc(-c2ccn(-c3ncnc4c(C(=O)C(=O)N5CCN(C(=O)c6ccccc6)CC5)c[nH]c34)n2)cc1` [Example 17, 1-(4-Benzoylpiperazin-1-yl)-2-(4-(3-(4-methoxyphenyl)-1H-pyrazol-1-yl)-5H-pyrrolo[3,2-d]pyrimidin-7-yl)ethane-1,2-dione], the EC50 is under 1 µM.
The result for `COc1ccccc1-c1ccn(-c2ncnc3c(C(=O)C(=O)N4CCN(C(=O)c5ccccc5)CC4)c[nH]c23)n1` [Example 18, 1-(4-Benzoylpiperazin-1-yl)-2-(4-(3-(2-methoxyphenyl)-1H-pyrazol-1-yl)-5H-pyrrolo[3,2-d]pyrimidin-7-yl)ethane-1,2-dione] reads under 1 µM; that for `O=C(C(=O)N1CCN(C(=O)c2ccccc2)CC1)c1c[nH]c2c(-c3cnccn3)ncnc12` [Example 27, 1-(4-Benzoylpiperazin-1-yl)-2-(4-(pyrazin-2-yl)-5H -pyrrolo[3,2-d]pyrimidin-7-yl)ethane-1,2-dione], under 1 µM; that for `O=C(C(=O)N1CCN(C(=O)c2ccccc2)CC1)c1c[nH]c2c(-n3cccn3)ncnc12` [Example 6, 1-(4-Benzoyl-piperazin-1-yl)-2-(4-pyrazol-1-yl-5H -pyrrolo[3,2-d]pyrimidin-7-yl)-ethane-1,2-dione], under 1 µM.
For `CCOc1ncnc2c(C(=O)C(=O)N3CCN(C(=O)c4ccccc4)CC3)c[nH]c12` [Example 10, 1-(4-Benzoylpiperazin-1-yl)-2-(4-ethoxy-5H-pyrrolo[3,2-d]pyrimidin-7-yl)ethane-1,2-dione], the EC50 was under 1 µM.
Then `Cc1ccn(-c2ncnc3c(C(=O)C(=O)N4CCN(C(=O)c5ccccc5)CC4)c[nH]c23)n1` [Example 3, 1-(4-Benzoyl-piperazin-1-yl)-2-[4-(3-methyl-pyrazol-1-yl)-5H-pyrrolo[3,2-d]pyrimidin-7-yl]-ethane-1,2-dione], with under 1 µM; and `N#CC(=C1CCN(C(=O)C(=O)c2c[nH]c3c(-n4cccn4)ncnc23)CC1)c1ccccc1` [Example 42, 2-(1-(2-(4-(1H-Pyrazol-1-yl)-5H-pyrrolo[3,2-d]pyrimidin-7-yl)-2-oxoacetyl)piperidin-4-ylidene)-2-phenylacetonitrile], with under 1 µM.
Regarding `COc1ncnc2c(C(=O)C(=O)N3CCN(C(=O)c4ccccc4)CC3)c[nH]c12` [Example 5, 1-(4-Benzoyl-piperazin-1-yl)-2-(4-methoxy-5H-pyrrolo[3,2-d]pyrimidin-7-yl)-ethane-1,2-dione], the EC50 is under 1 µM.
For the compound `O=C(C(=O)N1CCC(=C(c2ccccc2)c2nnco2)CC1)c1c[nH]c2c(-n3cccn3)ncnc12` [Example 37, 1-(4-((1,3,4-Oxadiazol-2-yl)(phenyl)methylene)piperidin-1-yl) -2-(4-(1H-pyrazol-1-yl)-5H-pyrrolo[3,2-d]pyrimidin-7-yl)ethane-1,2-dione], the EC50 is under 1 µM.
For the compound `N#CC(=C1CCN(C(=O)C(=O)c2c[nH]c3c(Cl)ncnc23)CC1)c1ccccc1` [Example 33, 2-(1-(2-(4-Chloro-5H-pyrrolo[3,2-d]pyrimidin-7-yl)-2-oxoacetyl)piperidin-4-ylidene)-2-phenylacetonitrile], the concentration giving a half-maximal response (EC50) was under 1 µM.
Then `O=C(C(=O)N1CCN(C(=O)c2ccccc2)CC1)c1c[nH]c2c(-n3cncn3)ncnc12` [Example 20, 1-(4-(1H-1,2,4-Triazol-1-yl)-5H-pyrrolo[3,2-d]pyrimidin-7-yl)-2-(4-benzoylpiperazin-1-yl)ethane-1,2-dione], with under 1 µM; and `N#Cc1ncnc2c(C(=O)C(=O)N3CCN(C(=O)c4ccccc4)CC3)c[nH]c12` [Example 12, 7-(2-(4-Benzoylpiperazin-1-yl)-2-oxoacetyl)-5H-pyrrolo[3,2-d]pyrimidine-4-carbonitrile], with under 1 µM.
Then `O=C(C(=O)N1CCN(C(=O)c2ccccc2)CC1)c1c[nH]c2c(-n3ccc(-c4ccccc4)n3)ncnc12` [Example 15, 1-(4-Benzoylpiperazin-1-yl)-2-(4-(3-phenyl-1H -pyrazol-1-yl)-5H-pyrrolo[3,2-d]pyrimidin-7-yl)ethane-1,2-dione], with under 1 µM.
Then `O=C(C(=O)N1CCN(c2nccc3ccccc23)CC1)c1c[nH]c2c(-c3cnccn3)ncnc12` [Example 31, 1-(4-(Isoquinolin-1-yl)piperazin-1-yl)-2-(4-(pyrazin-2-yl)-5H-pyrrolo[3,2-d]pyrimidin-7-yl)ethane-1,2-dione], with under 1 µM; and `CN(C)C(=O)c1ccn(-c2ncnc3c(C(=O)C(=O)N4CCN(C(=O)c5ccccc5)CC4)c[nH]c23)n1` [Example 13, 1-(7-(2-(4-Benzoylpiperazin-1-yl)-2-oxoacetyl)-5H -pyrrolo[3,2-d]pyrimidin-4-yl)-N,N-dimethyl-1H-pyrazole-3-carboxamide], with under 1 µM.
With `O=C(C(=O)N1CCN(C(=O)c2ccccc2)CC1)c1c[nH]c2c(-n3nccn3)ncnc12` [Example 8, 1-(4-(2H-1,2,3-Triazol-2-yl)-5H-pyrrolo[3,2-d]pyrimidin-7-yl)-2-(4-benzoylpiperazin-1-yl)ethane-1,2-dione], the EC50 is under 1 µM.
The result for `N#CC(=C1CCN(C(=O)C(=O)c2c[nH]c3c(-n4cccn4)ncnc23)CC1)c1ccccn1` [Example 38, 2-(1-(2-(4-(1H-pyrazol-1-yl)-5H-pyrrolo[3,2-d]pyrimidin-7-yl)-2-oxoacetyl)piperidin-4-ylidene)-2-(pyridin-2-yl)acetonitrile] reads under 1 µM; that for `CN1CCN(C(=O)c2ccn(-c3ncnc4c(C(=O)C(=O)N5CCN(C(=O)c6ccccc6)CC5)c[nH]c34)n2)CC1` [Example 14, 1-(4-Benzoylpiperazin-1-yl)-2-(4-(3-(1-methylpiperazine-4-carbonyl)-1H-pyrazol-1-yl)-5H-pyrrolo[3,2-d]pyrimidin-7-yl)ethane-1,2-dione], under 1 µM; that for `Cc1cnn(-c2ncnc3c(C(=O)C(=O)N4CCN(C(=O)c5ccccc5)CC4)c[nH]c23)c1` [Example 4, 1-(4-Benzoyl-piperazin-1-yl)-2-[4-(4-methyl-pyrazol-1-yl)-5H-pyrrolo[3,2-d]pyrimidin-7-yl]-ethane-1,2-dione], under 1 µM.
As to `N#CC(=C1CCN(C(=O)C(=O)c2c[nH]c3c(-c4cncnc4)ncnc23)CC1)c1ccccc1` [Example 34, 2-(1-(2-Oxo-2-(4-(pyrimidin-5-yl)-5H-pyrrolo[3,2-d]pyrimidin-7-yl)acetyl)piperidin-4-ylidene)-2-phenylacetonitrile], the EC50 was under 1 µM.
On to `O=C(C(=O)N1CCN(C(=O)c2ccccc2)CC1)c1c[nH]c2c(-c3cccnc3)ncnc12` [Example 25, 1-(4-Benzoylpiperazin-1-yl)-2-(4-(pyridin-3-yl)-5H -pyrrolo[3,2-d]pyrimidin-7-yl)ethane-1,2-dione], for which the EC50 is under 1 µM.
The result for `O=C(O)c1ccn(-c2ncnc3c(C(=O)C(=O)N4CCN(C(=O)c5ccccc5)CC4)c[nH]c23)n1` [Example 9, 1-{7-[2-(4-Benzoyl-piperazin-1-yl)-2-oxo-acetyl]-5H-pyrrolo[3,2-d]pyrimidin-4-yl}-1H-pyrazole-3-carboxylic Acid] reads under 1 µM; that for `N#CC(=C1CCN(C(=O)C(=O)c2c[nH]c3c(-c4cc[nH]n4)ncnc23)CC1)c1ccccc1` [Example 43, 2-(1-(2-(4-(1H-pyrazol-3-yl)-5H-pyrrolo[3,2-d]pyrimidin-7-yl)-2-oxoacetyl)piperidin-4-ylidene)-2-phenylacetonitrile], under 1 µM.
Regarding `Cc1ncn(-c2ncnc3c(C(=O)C(=O)N4CCN(C(=O)c5ccccc5)CC4)c[nH]c23)n1` [Example 7, 1-(4-Benzoyl-piperazin-1-yl)-2-[4-(3-methyl-[1,2,4]triazol-1-yl)-5H-pyrrolo[3,2-d]pyrimidin-7-yl]-ethane-1,2-dione], the EC50 is under 1 µM.

One may read the EC50 as the midpoint of the concentration-response curve.
